# Data reported in the supplement of paper PMC10307832.
# Columns and labels:
# Assay in all cases: relative viability (nuclei count vs DMSO), 5 days (fraction); higher = more cells survive
# [1] = compound: CN1CCN(CC1)C2=CC(=C(C=C2)NC3=NC=C4C(=N3)N(C5=CC=CC=C5C(=O)N4C)C)OC [XMD8-85] + Nc1nc2[nH]cc(CCc3ccc(C(=O)N[C@@H](CCC(=O)O)C(=O)O)cc3)c2c(=O)[nH]1 [Pemetrexed] (partner 0.2 µM)
# Procedure, shortened: (§1)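 For relative viability, nuclei counts in treated wells were divided by those in vehicle wells. Lung cancer cell lines had been pin-tool dosed in 1536-well plates the day after seeding and cultured for 5 days, then fixed and stained in one step (final 0.05% Triton X-100, 1% formaldehyde, 1 ug/ml Hoechst) and imaged at 4×. Doses were one drug alone or a fixed anchor-drug dose plus five library-drug doses (not always all listed) in √10 steps, and values are duplicate-plate medians.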
# [2] = compound: O=C(O)C(Cc1ccccc1[N+](=O)[O-])=NNc1nc(-c2ccc(Cl)c(Cl)c2)cs1 (mixture of isomers) [4EGI-1] + COc1cccc2cc(-c3nc([C@H]4CC[C@H](C(=O)O)CC4)n4ncnc(N)c34)[nH]c12 [OSI-027] (partner 0.5 µM)
# Procedure, shortened: as §1
# [3] = compound: O=C(O)C(Cc1ccccc1[N+](=O)[O-])=NNc1nc(-c2ccc(Cl)c(Cl)c2)cs1 (mixture of isomers) [4EGI-1] + Nc1ncn([C@H]2C[C@H](O)[C@@H](CO)O2)c(=O)n1 [Decitabine] (partner 2 µM)
# Procedure, shortened: as §1
# [4] = compound: O=C(O)C(Cc1ccccc1[N+](=O)[O-])=NNc1nc(-c2ccc(Cl)c(Cl)c2)cs1 (mixture of isomers) [4EGI-1] + O=C(c1cc(Cc2n[nH]c(=O)c3ccccc23)ccc1F)N1CCN(C(=O)C2CC2)CC1 [Olaparib] (partner 8 µM)
# Procedure, shortened: as §1
Cell Line,relative viability ([1]; first compound 0.08 µM),relative viability ([1]; first compound 0.253 µM),relative viability ([1]; first compound 0.8 µM),relative viability ([1]; first compound 2.53 µM),relative viability ([1]; first compound 8 µM),relative viability ([2]; first compound 0.5 µM),relative viability ([2]; first compound 5 µM),relative viability ([2]; first compound 15.81 µM),relative viability ([2]; first compound 50 µM),relative viability ([3]; first compound 0.5 µM),relative viability ([3]; first compound 1.581 µM),relative viability ([3]; first compound 5 µM),relative viability ([3]; first compound 15.81 µM),relative viability ([3]; first compound 50 µM),relative viability ([4]; first compound 0.5 µM),relative viability ([4]; first compound 1.581 µM),relative viability ([4]; first compound 5 µM),relative viability ([4]; first compound 15.81 µM),relative viability ([4]; first compound 50 µM),relative viability ([2]; first compound 1.581 µM)
LC-2-ad,0.261,0.26,0.253,0.274,0.249,0.873,0.894,0.386,0.234,0.876,0.859,0.742,0.587,0.444,0.631,0.617,0.645,0.523,0.309,–
LCLC-97TM1,0.153,0.17,0.211,0.181,0.189,0.464,0.527,0.482,0.478,0.278,–,0.23,0.248,0.124,0.355,–,0.278,0.328,0.0574,0.258
SW 900,0.46,0.505,0.506,0.477,0.282,0.72,0.586,0.46,0.207,0.447,0.406,0.464,0.396,0.283,0.923,0.812,0.936,0.552,0.23,–
NCI-H460,0.0608,0.0555,0.0635,0.0564,0.0781,0.684,0.668,0.3,0.0347,0.562,0.246,0.476,0.188,0.0663,0.425,–,0.436,0.244,0.134,–
UMC-11,0.818,0.745,0.82,0.707,0.391,0.465,0.507,0.484,0.284,0.731,0.609,0.685,0.624,0.419,0.36,0.35,0.369,0.332,0.222,0.526
HCC-827,0.284,0.251,0.266,0.254,0.301,0.888,0.796,–,0.719,0.263,0.31,0.344,–,0.219,0.572,0.457,0.703,–,0.406,0.629
201T,0.329,0.329,0.368,0.325,0.288,0.791,0.824,0.704,0.656,0.871,0.859,0.886,0.826,0.615,0.859,0.753,0.869,0.777,0.675,0.622
NCI-H1755,0.405,0.441,0.444,0.427,0.444,0.791,0.693,0.713,0.487,0.718,0.676,0.654,0.697,0.618,0.936,0.811,0.858,0.78,0.616,0.663
NCI-H1944,0.517,0.72,0.638,0.615,0.639,0.427,0.392,0.307,0.303,0.502,–,0.427,0.404,0.344,0.506,–,0.391,0.308,0.298,–
NCI-H1623,–,–,–,–,–,0.457,0.475,0.324,0.382,–,–,–,–,–,–,–,–,–,–,0.418
NCI-H1563,0.718,0.809,0.67,0.778,0.631,0.788,0.85,0.736,0.665,–,–,–,–,–,–,–,–,–,–,0.752
NCI-H1666,0.862,0.811,0.83,0.82,0.673,0.841,0.948,0.606,0.433,0.749,0.609,0.758,0.564,0.495,0.74,0.727,0.778,0.622,0.488,0.805
NCI-H1703,–,–,–,–,–,–,–,–,–,–,–,–,–,–,0.601,0.46,0.409,0.52,0.331,–
NCI-H1299,–,–,–,–,–,–,–,–,–,–,–,–,–,–,1.01,0.95,0.942,0.863,0.317,–
Calu-6,–,–,–,–,–,–,–,–,–,–,–,–,–,–,0.559,0.5,0.627,0.464,0.332,–
EBC-1,–,–,–,–,–,–,–,–,–,–,–,–,–,–,0.808,0.755,0.765,0.506,0.237,–
A549,–,–,–,–,–,–,–,–,–,0.345,0.377,0.259,0.177,0.0347,0.495,–,0.306,0.355,0.301,–
IA-LM,–,–,–,–,–,–,–,–,–,–,–,–,–,–,0.767,0.771,0.644,0.154,0.0834,–
ABC-1,–,–,–,–,–,0.642,0.455,0.313,0.218,1.28,–,1.12,1.23,0.482,0.885,–,1.19,1.16,0.269,0.357
CAL-12T,0.956,1.15,–,0.862,0.681,0.822,0.755,0.522,0.21,–,–,–,–,–,0.829,0.484,0.754,0.751,0.624,0.413
NCI-H727,–,–,–,–,–,0.669,0.538,0.552,0.451,0.731,0.854,0.858,0.808,0.606,0.638,0.679,0.717,0.496,0.592,0.652
NCI-H2228,0.334,0.319,0.343,0.398,0.237,0.674,0.594,0.607,0.13,–,–,–,–,–,0.947,0.702,0.693,0.536,0.128,0.54
